Results taken from patent US11396517B1, “Exo-aza spiro inhibitors of menin-MLL interaction” (Janssen Pharmaceutica NV, priority 2017, dated 2022).
Where two headings read alike, the source gives them in different places.

What was measured:
menin = molecular target: T1, menin (Homo sapiens, UniProt O00255, T541A); test: Menin/MLL homogenous time-resolved fluorescence (HTRF) assay; assay type: binding; conditions: location 2; read-out: (2) location 2 Menin HTRF assay (IC50 (nM))
T1 construct: Menin (a.a. 1-610-6×his tag)
T1 sequence (O00255 with tags, fused parts or gaps T541A): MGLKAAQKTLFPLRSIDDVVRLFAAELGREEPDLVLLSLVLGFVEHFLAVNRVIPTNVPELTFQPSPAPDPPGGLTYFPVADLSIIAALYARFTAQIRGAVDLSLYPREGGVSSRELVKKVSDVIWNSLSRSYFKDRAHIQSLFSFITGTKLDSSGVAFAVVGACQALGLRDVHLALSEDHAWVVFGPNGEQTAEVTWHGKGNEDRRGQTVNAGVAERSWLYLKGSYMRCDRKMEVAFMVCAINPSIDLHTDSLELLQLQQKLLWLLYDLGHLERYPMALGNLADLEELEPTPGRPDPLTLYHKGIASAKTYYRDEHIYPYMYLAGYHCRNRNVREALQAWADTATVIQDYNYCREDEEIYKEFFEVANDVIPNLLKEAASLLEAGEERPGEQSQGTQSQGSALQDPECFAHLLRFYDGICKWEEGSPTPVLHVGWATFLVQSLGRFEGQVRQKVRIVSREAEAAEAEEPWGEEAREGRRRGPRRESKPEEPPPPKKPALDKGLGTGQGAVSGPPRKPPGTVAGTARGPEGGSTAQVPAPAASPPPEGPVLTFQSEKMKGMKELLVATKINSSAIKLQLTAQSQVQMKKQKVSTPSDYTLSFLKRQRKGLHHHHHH
How it was run: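 Terbium-labeled menin (aa 1-610, His-tagged; […]) preincubated 5 min with compound, then 75 nM FITC-MBM1 peptide for 15 min, ambient, Tris pH 7.5, 0.5% DMSO. HTRF 520/490 ratio; 11-point 3-fold titration; IC50 from % inhibition fit.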

MOLM14 = test: Proliferation assay B (spheroid assay) MOLM14; assay type: cell-based, human; conditions: MOLM14 cells, confluence at day 8, absolute IC50, read-out: (3b) Spheroid assay MOLM14 (IC50(μM)) Assay B
How it was run: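 Leukemia cells grown as spheroids in ultra-low-attachment round-bottom wells with compound at 0.3% DMSO for 8 d at 37 °C. Confluence imaged at day 8 as spheroid size, normalized between DMSO and 1 μM staurosporine controls; absolute IC50 from sigmoidal fit with bounds fixed at 0 and 100%.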

IC50 (menin) | IC50 (MOLM14; Homo sapiens, MOLM-14, 192 h) | IC50 (MOLM14) | SMILES
1.8 nM | 1.05 µM |  | Cn1c(=O)[nH]c2cc(CNC3CCC4(C3)CN(c3ncnc5sc(CC(F)(F)F)cc35)C4)ccc21 (centres unmarked) [Compound 54]
70.5 nM | > 3.75 µM |  | FC(F)(F)Cc1cc2c(N3CCC4(CC(Nc5ccc6cc[nH]c6c5)C4)C3)ncnc2s1 (mixture of isomers) [Compound 311]
5.8 nM |  | 0.62 µM | CNC(=O)c1ccc(NC2CC3(CCN(c4ncnc5sc(CC(F)(F)F)cc45)C3)C2)cc1 (centres unmarked) [Compound 93]
2.9 nM | 0.2 µM |  | O=c1[nH]c2cc(CNC3CCC4(C3)CN(c3ncnc5sc(CC(F)(F)F)cc35)C4)ccc2o1 (single isomer, unassigned) [Compound 58]
